Data: patent publication US20210330611A1, “THERAPY FOR NEUROLOGICAL DISEASES/DISORDERS” (priority 2020, published 2021)
Counter-ions that a name gives are not always drawn. Like-named read-outs stand apart in the source and are kept apart here.

How the values were obtained:
[1] = test system: fibrin- and LPS-induced microglia activation; assay: cells; assay type: cell-based, rat; conditions: classification by fibrin and LPS inhibition, HTS at 10 μM
primary rat microglia [2] = assay: Cell toxicity (dead cells, size <150 μm2) in coated fibrin (cFib) assay; conditions: primary microglia HTS, fibrin assay, dead cells (size <150 μm2), compounds at 10 μM;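 also: share of dead cells sized under 150 µm2 at 10 µM in fibrin-stimulated microglia HTS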
[3] = test system: fibrin-induced microglia activation; assay: Image-based assay of fibrin-induced microglia activation (HTS and dose response); assay type: cell-based, rat; conditions: primary microglia HTS, fibrin stimulation, compounds at 10 μM; for inhibition at 10 µM: Rattus norvegicus, Microglia, read-out: Fibrin % inhibition
primary rat microglia [4] = test system: primary rat microglia
[5] = test system: LPS-induced microglia activation; assay: Image-based assay of LPS-induced microglia activation (HTS and dose response); assay type: cell-based, rat; conditions: primary microglia HTS, LPS stimulation, compounds at 10 μM; for inhibition at 10 µM: Rattus norvegicus, Microglia, read-out: LPS % inhibition

Compound | Quadrant (FIG. 5b) [1] | Fibrin % cell toxicity (primary rat microglia [2]) [%] | inhibition at 10 µM [3] [%] | LPS % cell toxicity (primary rat microglia [4]; rat) [%] | inhibition at 10 µM [5] [%] | Fibrin % inhibition [3] [%] | LPS % cell toxicity (primary rat microglia [4]) [%] | LPS % inhibition [5] [%] | Fibrin % inhibition ([3]; 10 µM) [%] | LPS % inhibition ([5]; 10 µM) [%]
CCCCOC(=O)c1ccccc1C(=O)OCCCC [Dibutyl Phthalate] | Q4 | 1 | -30 | 0 | 9 | – | – | – | – | –
Oc1ccc(Cl)cc1Cc1cc(Cl)ccc1O [Dichlorophene, Dichlorophen] | Q4 | 1 | – | – | – | −23 | 0 | 15 | – | –
N#CC(c1ccc(Cl)cc1)c1c(Cl)cc(-n2ncc(=O)[nH]c2=O)cc1Cl (stereo not shown) [Diclazuril] | Q4 | 1 | 48 | 0 | 21 | – | – | – | – | –
Cc1onc(-c2c(Cl)cccc2Cl)c1C(=O)N[C@@H]1C(=O)N2[C@@H]1SC(C)(C)[C@@H]2C(=O)O [Dicloxacillin] | Q4 | 0 | -23 | 0 | 14 | – | – | – | – | –
C/C=C(/C(=C/C)c1ccc(O)cc1)c1ccc(O)cc1 [Dienestrol] | Q4 | 1 | 17 | 0 | 21 | – | – | – | – | –
CCN(CC)C(=O)N1CCN(C)CC1 [Diethylcarbamazine] | Q4 | 0 | -26 | 0 | 11 | – | – | – | – | –
CN1CCN(c2cc3c(cc2F)c(=O)c(C(=O)O)cn3-c2ccc(F)cc2)CC1 [Difloxacin Hydrochloride] | Q4 | 1 | 25 | 1 | 33 | – | – | – | – | –
CN[C@@H]1[C@H](O[C@H]2[C@H](O[C@H]3[C@H](O)[C@@H](O)[C@H](NC(=N)N)[C@@H](O)[C@@H]3NC(=N)N)O[C@@H](C)[C@]2(O)CO)O[C@@H](CO)[C@H](O)[C@H]1O [Dihydrostreptomycin Sulfate] | Q4 | 1 | -7 | 0 | 12 | – | – | – | – | –
Oc1c(I)cc(I)c2cccnc12 [Diiodohydroxyquinoline] | Q4 | 1 | -6 | 0 | 22 | – | – | – | – | –
CN(C(=O)C(Cl)Cl)c1ccc(OC(=O)c2ccco2)cc1 [Diloxanide Furoate] | Q4 | 1 | -3 | 0 | 17 | – | – | – | – | –
O=S(=O)([O-])CCSSCCS(=O)(=O)[O-].[Na+].[Na+] [Dimesna] | Q4 | 1 | – | – | – | −19 | 0 | 13 | – | –
CC1(C)OC(=O)NC1=O [Dimethadione] | Q4 | 1 | -13 | 0 | 14 | – | – | – | – | –
COC(=O)/C=C/C(=O)OC [Dimethyl Fumarate] | Q4 | 0 | 4 | 0 | 16 | – | – | – | – | –
N=C(N)c1ccc(/N=N/Nc2ccc(C(=N)N)cc2)cc1 [Diminazene] | Q4 | 0 | -58 | 0 | 11 | – | – | – | – | –
CCCCC[C@H](O)/C=C/[C@@H]1[C@@H](C/C=C\CCCC(=O)O)[C@@H](O)C[C@H]1O [Dinoprost Tromethamine] | Q4 | 1 | 36 | 0 | 15 | – | – | – | – | –
COc1ccc(-c2cc(=O)c3c(O)cc(O[C@@H]4O[C@H](CO[C@@H]5O[C@@H](C)[C@H](O)[C@@H](O)[C@H]5O)[C@@H](O)[C@H](O)[C@H]4O)cc3o2)cc1O [Diosmin] | Q4 | 1 | -12 | 0 | 10 | – | – | – | – | –
COc1ccc(C(=O)c2ccccc2O)c(O)c1 [Dioxybenzone] | Q4 | 1 | -4 | 0 | 16 | – | – | – | – | –
O=C(Nc1ccccc1)OCC(CN1CCCCC1)OC(=O)Nc1ccccc1 (stereo not shown) [Diperodon Hydrochloride] | Q4 | 1 | 42 | 1 | 26 | – | – | – | – | –
OC(CCCN1CCCCC1)(c1ccccc1)c1ccccc1 [Diphenidol] | Q4 | 1 | -34 | 0 | -5 | – | – | – | – | –
CC(=O)Oc1cccc(C(=O)O)c1OC(C)=O [Dipyrocetyl] | Q4 | 1 | -1 | 0 | 7 | – | – | – | – | –
CC[C@H]1OC(=O)[C@H](C)[C@@H](O[C@H]2C[C@@](C)(OC)[C@@H](O)[C@H](C)O2)[C@H](C)[C@@H](O[C@@H]2O[C@H](C)C[C@H](N(C)C)[C@H]2O)[C@](C)(O)C[C@@H](C)[C@@H]2N[C@@H](COCCOC)O[C@H]([C@H]2C)[C@]1(C)O [Dirithromycin] | Q4 | 1 | 7 | 1 | 27 | – | – | – | – | –
CC(C)N(CCC(C(N)=O)(c1ccccc1)c1ccccn1)C(C)C (stereo not shown) [Disopyramide] | Q4 | 1 | -13 | 0 | 1 | – | – | – | – | –
CCOC(=S)SSC(=S)OCC [Dixanthogen] | Q4 | 1 | 4 | 0 | 17 | – | – | – | – | –
CC(CCc1ccc(O)cc1)NCCc1ccc(O)c(O)c1 (stereo not shown) [Dobutamine Hydrochloride] | Q4 | 1 | – | 0 | – | – | – | – | 22 | 27
CC(CCc1ccc(O)cc1)NCCc1ccc(O)c(O)c1 (stereo not shown) [Dobutamine] | Q4 | 1 | – | 0 | – | – | – | – | −29 | −7
CC/C=C\C/C=C\C/C=C\C/C=C\C/C=C\C/C=C\CCC(=O)O [Doconexent] | Q4 | 1 | 3 | 0 | 11 | – | – | – | – | –
CCCCCCCCCCCCCCCCCCCCCCO [Docosanol] | Q4 | 0 | -10 | 0 | -2 | – | – | – | – | –
CCCCC(CC)COC(=O)CC(C(=O)OCC(CC)CCCC)S(=O)(=O)[O-].[Na+] (stereo not shown) [Docusate Sodium] | Q4 | 0 | – | – | – | −39 | 0 | −4 | – | –
CN(CCOc1ccc(NS(C)(=O)=O)cc1)CCc1ccc(NS(C)(=O)=O)cc1 [Dofetilide] | Q4 | 1 | -26 | 0 | 5 | – | – | – | – | –
